Measurements from patent US5028625A, “Acid addition salt of ibuprofen and meglumine” (priority 1989, dated 1991).
Structures can show the parent of a compound that is named as a salt.

How the values were obtained:
[1] = Redissolution in water of evaporated salt residue, pH and taste; assay type: physicochemical
Procedure: The meglumine salt of ibuprofen was formed by dissolving 10 grams of Ibuprofen, USP, in 330 milliliters of Alcohol, USP to which was added 10 grams of Meglumine, USP. The ibuprofen-meglumine molar ratio was 1:1.0566.

[2] = in alcohol; cited from earlier work

**Q.** Which “ibuprofen concentration of clear solution as the meglumine salt” value ([1]; 740 milligrams of residue in 7.5 milliliters of water, 200 mg/5ml) does the source give for `CC(C)Cc1ccc(C(C)C(=O)O)cc1` (stereo not drawn) [meglumine ibuprofen salt] here?
**A.** approximately 4 % w/v

**Q.** And the “pH of salt solution” value ([1]; approximately 4% w/v ibuprofen in water)?
**A.** 8.35

**Q.** For `CNC[C@H](O)[C@@H](O)[C@H](O)[C@H](O)CO` [meglumine, Meglumine], which “meglumine alcohol solubility limit” value [2] is on record?
**A.** 1.2 grams in 100 ml
